As a reminder, the IC50 is the point on the concentration scale where inhibition reaches its midpoint.

In this assay the target is T1, Sentrin-specific protease 1 (Homo sapiens, UniProt Q9P0U3).
T1 sequence (Q9P0U3 whole entry): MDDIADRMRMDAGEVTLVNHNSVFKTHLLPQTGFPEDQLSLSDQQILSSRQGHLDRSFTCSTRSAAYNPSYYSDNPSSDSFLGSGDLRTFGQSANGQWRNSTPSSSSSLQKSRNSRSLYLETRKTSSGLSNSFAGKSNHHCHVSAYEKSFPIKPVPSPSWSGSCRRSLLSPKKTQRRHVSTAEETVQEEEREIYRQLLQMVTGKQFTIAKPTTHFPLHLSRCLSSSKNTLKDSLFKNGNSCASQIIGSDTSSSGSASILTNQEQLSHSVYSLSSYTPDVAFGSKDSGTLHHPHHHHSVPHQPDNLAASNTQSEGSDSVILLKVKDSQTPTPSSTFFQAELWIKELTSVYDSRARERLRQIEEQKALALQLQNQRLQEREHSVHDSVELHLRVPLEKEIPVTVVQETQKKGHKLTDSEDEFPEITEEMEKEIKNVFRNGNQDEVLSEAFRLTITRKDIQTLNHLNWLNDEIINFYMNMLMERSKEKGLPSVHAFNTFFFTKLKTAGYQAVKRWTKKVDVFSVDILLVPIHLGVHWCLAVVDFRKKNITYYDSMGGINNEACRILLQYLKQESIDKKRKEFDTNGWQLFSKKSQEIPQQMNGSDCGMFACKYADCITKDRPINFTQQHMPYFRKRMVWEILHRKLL
Nature of the assay: Inhibition of SENP1 catalytic domain (419 to 644 residues) (unknown origin) expressed in Escherichia coli BL21 (DE3) assessed as reduction in deSUMOylation preincubated for 10 mins followed by addition of RanGAP-SUMO as substrate measured after 25 mins by coomassie staining-based SDS-PAGE analysis.

`O=C(N/N=C/C1CCCCC1)c1cc(Cl)ccc1O`: the IC50 was 14 µM.

(Values after ChEMBL document CHEMBL3864126, “Identification of SENP1 inhibitors through in silico screening and rational drug design” (Eur J Med Chem, 2016).)
